Assay results published in patent publication US20260206753A1, “HERBICIDAL DERIVATIVES” (SYNGENTA CROP PROTECTION AG, priority 2022, published 2026).

What was measured:
Type in all cases: in vivo
[1] = tested on: Amaranthus palmeri (AMAPA); assay: Pre-emergence herbicide test, glasshouse pots; conditions: 1000 g/ha, evaluated after 13 days
Setaria faberi (SETFA) [2] = assay: Pre-emergence herbicide test, glasshouse pots; conditions: 1000 g/ha, evaluated after 13 days
[3] = tested on: Echinochloa crus-galli (ECHCG); assay: Pre-emergence herbicide test, glasshouse pots; conditions: 1000 g/ha, evaluated after 13 days
Zea mays (ZEAMX) [4] = assay: Pre-emergence herbicide test, glasshouse pots; conditions: 1000 g/ha, evaluated after 13 days
[5] = tested on: Amaranthus retoflexus (AMARE); assay: Post-emergence herbicide test, glasshouse pots; conditions: sprayed after 8 days cultivation, 1000 g/ha, evaluated after 13 days
Procedure: (§1) Seeds of a variety of test species are sown in standard soil in pots (Setaria faberi (SETFA), Echinochloa crus-galli (ECHCG), Ipomoea hederacea (IPOHE), Amaranthus palmeri (AMAPA), Zea mays (ZEAMX), Amaranthus retoflexus (AMARE), Solanum nigrum (SOLNI), Lolium perenne (LOLPE), Abutilon theophrasti (ABUTH)). After 8 days cultivation under controlled conditions in a glasshouse (at 24° C./16° C., day/night; 14 hours light; 65% humidity), the plants are sprayed with an aqueous spray solution derived from the formulation of the technical active ingredient in acetone/water (50:50) solution containing 0.5% Tween 20 (polyoxyethelyene sorbitan monolaurate, CAS RN 9005-64-5). Compounds are applied at 1000 g/ha unless otherwise stated. The test plants are then grown in a glasshouse under controlled conditions in a glasshouse (at 24° C./16° C., day/night; 14 hours light; 65% humidity) and watered twice daily. After 13 days the test is evaluated for the percentage damage caused to the plant. The biological activities are shown in the following table on a five-point scale (5=81-100%; 4=61-80%; 3=41-60%; 2=21-40%; 1=0-20%).

Setaria faberi (SETFA) [6] = assay: Post-emergence herbicide test, glasshouse pots; conditions: sprayed after 8 days cultivation, 1000 g/ha, evaluated after 13 days
Procedure: as §1

Zea mays (ZEAMX) [7] = assay: Post-emergence herbicide test, glasshouse pots; conditions: sprayed after 8 days cultivation, 1000 g/ha, evaluated after 13 days
Procedure: as §1

[8] = tested on: Ipomoea hederacea (IPOHE); assay: Post-emergence herbicide test, glasshouse pots; conditions: sprayed after 8 days cultivation, 1000 g/ha, evaluated after 13 days
Procedure: as §1

[9] = tested on: Echinochloa crus-galli (ECHCG); assay: Post-emergence herbicide test, glasshouse pots; conditions: sprayed after 8 days cultivation, 1000 g/ha, evaluated after 13 days
Procedure: as §1

[10] = tested on: Amaranthus palmeri (AMAPA); assay: Post-emergence herbicide test, glasshouse pots; conditions: sprayed after 8 days cultivation, 1000 g/ha, evaluated after 13 days
Procedure: as §1

[11] = tested on: Amaranthus retoflexus (AMARE); assay: Pre-emergence herbicide test, glasshouse pots; conditions: 1000 g/ha, evaluated after 13 days
[12] = tested on: Ipomoea hederacea (IPOHE); assay: Pre-emergence herbicide test, glasshouse pots; conditions: 1000 g/ha, evaluated after 13 days

SMILES | AMAPA, percentage damage caused to the plant (five-point scale) [1] | SEFTA, percentage damage caused to the plant (five-point scale) (Setaria faberi (SETFA) [2]) | ECHCG, percentage damage caused to the plant (five-point scale) [3] | ZEAMX, percentage damage caused to the plant (five-point scale) (Zea mays (ZEAMX) [4]) | AMARE, percentage damage caused to the plant (five-point scale) [5] | SEFTA, percentage damage caused to the plant (five-point scale) (Setaria faberi (SETFA) [6]) | ZEAMX, percentage damage caused to the plant (five-point scale) (Zea mays (ZEAMX) [7]) | IPOHE, percentage damage caused to the plant (five-point scale) [8] | ECHCG, percentage damage caused to the plant (five-point scale) [9] | AMAPA, percentage damage caused to the plant (five-point scale) [10] | AMARE, percentage damage caused to the plant (five-point scale) [11] | IPOHE, percentage damage caused to the plant (five-point scale) [12]
CCn1cc(-c2ccc(Cl)cc2F)c(=O)c(C(=O)O)c1-c1ccc(Cl)c(Cl)c1 [Compound 2, 5-(4-chloro-2-fluoro-phenyl)-2-(3,4-dichlorophenyl)-1-ethyl-4-oxo-pyridine-3-carboxylic acid] | 5 (5=81-100%) | 5 (5=81-100%) | 5 (5=81-100%) | 3 (3=41-60%) | 4 (4=61-80%) | 4 (4=61-80%) | 4 (4=61-80%) | 3 (3=41-60%) | 4 (4=61-80%) | 5 (5=81-100%) | 1 (1=0-20%) | 3 (3=41-60%)
CCn1cc(-c2cc(OC(F)(F)F)ccc2F)c(=O)c(C(=O)O)c1-c1ccc(Cl)c(Cl)c1 [Compound 5, 2-(3,4-dichlorophenyl)-1-ethyl-5-[2-fluoro-5-(trifluoromethoxy)phenyl]-4-oxo-pyridine-3-carboxylic acid] | 4 (4=61-80%) | 5 (5=81-100%) | 5 (5=81-100%) | 4 (4=61-80%) | 4 (4=61-80%) | 4 (4=61-80%) | 4 (4=61-80%) | 4 (4=61-80%) | 4 (4=61-80%) | 4 (4=61-80%) | 3 (3=41-60%) | 4 (4=61-80%)
CCn1cc(-c2cc(OC(F)(F)F)ccc2Cl)c(=O)c(C(=O)O)c1-c1ccc(Cl)c(Cl)c1 [Compound 7, 5-[2-chloro-5-(trifluoromethoxy)phenyl]-2-(3,4-dichlorophenyl)-1-ethyl-4-oxo-pyridine-3-carboxylic acid] | 3 (3=41-60%) | 5 (5=81-100%) | 4 (4=61-80%) | 3 (3=41-60%) | 4 (4=61-80%) | 5 (5=81-100%) | 3 (3=41-60%) | 3 (3=41-60%) | 4 (4=61-80%) | 4 (4=61-80%) | 4 (4=61-80%) | 1 (1=0-20%)
CCn1cc(-c2cc(C(=O)OC(C)C)c(Cl)cc2F)c(=O)c(C(=O)O)c1-c1ccc(Cl)c(Cl)c1 [Compound 6, 5-(4-chloro-2-fluoro-5-isopropoxycarbonyl-phenyl)-2-(3,4-dichlorophenyl)-1-ethyl-4-oxo-pyridine-3-carboxylic acid] | 5 (5=81-100%) | 5 (5=81-100%) | 5 (5=81-100%) | 5 (5=81-100%) | 5 (5=81-100%) | 5 (5=81-100%) | 4 (4=61-80%) | 3 (3=41-60%) | 5 (5=81-100%) | 5 (5=81-100%) | 5 (5=81-100%) | 4 (4=61-80%)
CCn1cc(-c2cc(C(=O)OC(C)C)ccc2F)c(=O)c(C(=O)O)c1-c1ccc(Cl)c(Cl)c1 [Compound 8, 2-(3,4-dichlorophenyl)-1-ethyl-5-(2-fluoro-5-isopropoxycarbonyl-phenyl)-4-oxo-pyridine-3-carboxylic acid] | 5 (5=81-100%) | 5 (5=81-100%) | 5 (5=81-100%) | 1 (1=0-20%) | 3 (3=41-60%) | 4 (4=61-80%) | 3 (3=41-60%) | 3 (3=41-60%) | 3 (3=41-60%) | 3 (3=41-60%) | 3 (3=41-60%) | 1 (1=0-20%)
CCn1cc(-c2cccc(OC(F)(F)F)c2F)c(=O)c(C(=O)O)c1-c1ccc(Cl)c(Cl)c1 [Compound 11, 2-(3,4-dichlorophenyl)-1-ethyl-5-[2-fluoro-3-(trifluoromethoxy)phenyl]-4-oxo-pyridine-3-carboxylic acid] | 2 (2=21-40%) | 3 (3=41-60%) | 3 (3=41-60%) | 0 | 4 (4=61-80%) | 2 (2=21-40%) | 1 (1=0-20%) | 3 (3=41-60%) | 4 (4=61-80%) | 4 (4=61-80%) | 2 (2=21-40%) | 3 (3=41-60%)
CCn1cc(-c2ccc(Cl)cc2)c(=O)c(C(=O)O)c1-c1ccc(Cl)c(Cl)c1 [Compound 1, 5-(4-chlorophenyl)-2-(3,4-dichlorophenyl)-1-ethyl-4-oxo-pyridine-3-carboxylic acid] | 1 (1=0-20%) | 5 (5=81-100%) | 5 (5=81-100%) | 1 (1=0-20%) | 3 (3=41-60%) | 4 (4=61-80%) | 3 (3=41-60%) | 3 (3=41-60%) | 4 (4=61-80%) | 3 (3=41-60%) | 0 | 3 (3=41-60%)
